This is an account of results in patent US10344017B2, “Pyrrolcarboxamide derivatives for the inhibition of ERK5” (CANCER RESEARCH TECHNOLOGY LIMITED, priority 2014, dated 2019).

Where two headings read alike, the source gives them in different places.

One assay deals with T1, ERK5 (Homo sapiens, UniProt Q13164).
T1 construct: made in house
As to the kind of experiment: ERK5 IMAP assay (fluorescence polarisation). In kind it is biochemical. A general note: In fluorescence polarisation assays a small probe gives low polarisation when free and higher when bound to something large.

Assay [1] relates to ERK5 (HA-ERK5 wt activated by EGFP-MEK5D, MEF2D-Gal4/Gal4-Luc reporter) in HEK293 cells. As to the kind of experiment: Dual-luciferase reporter assay (ERK5 reporter), reverse-transfected HEK293 cells. Conditions: Homo sapiens, HEK293, read-out: ERK 5 Reporter Assay. (In a reporter assay the amount or activity of a reporter protein is the signal.)
Description: Dual-Luciferase Reporter Assay
Trypsinizing of Adherent Cell Colonies
Cells were regularly passaged in order to maintain optimum colony sizes on plates. In order to do this, and to harvest cells for use in the dual-luciferase reporter assay, adherent cells were lifted from tissue culture dishes. Cell media was removed via aspiration, and the cell monolayer was washed with phosphate buffered saline (PBS) solution (10 mL), which was then aspirated.
Reverse Transfection of HEK293 Cells
Preparation of EGFP Control (C3) Working Solution (for 1×96 Well Plate)
Preparation of HEK293 Cells for Reverse Transfection
Trypsinized HEK293 cells were re-suspended in 19 mL of fresh cell media and counted using haemocytometry. Cells were then diluted with fresh cell media to achieve a final cell concentration of 2×10^5 cells/mL. 1237.5 μL and 7425 μL of this cell media was added to the C3 and 5D working solutions respectively. 100 μL of the transfected cells were then aliquoted into the appropriate wells in a 96-well opaque sided tissue culture plate, and incubated at 37° C. for 6 h.
Addition of Compounds to HEK293 Cells
4 compounds was assayed per 96-well plate. For each compound, 1 mL of growth media was added to eight 1.5 mL Eppendorf® tubes. 6 μL of DMSO was added to two tubes for C3 and blank 5D wells, and 6 μL of the relevant compound stock solution was added to the 6 remaining tubes. […] Solutions of drug in media were thoroughly mixed, and 100 μL of the relevant compound was transferred (in triplicate) to the 96-well plate containing transfected HEK293 cells using an electronic multichannel pipette with variable tip spacing. Sealed plates were incubated at 37° C. for 24 h. Final compound concentrations were as follows; 30 μM, 10 μM, 3 μM, 1 μM and 0.3 μM.
15 mL of 1× passive lysis buffer (PLB) was prepared using 5×PLB (Dual-Luciferase Reporter Assay System, Promega® E1960), diluting with H2O. Assay plates prepared were removed from the incubator and the growth media removed by aspiration.
Where [2] appears, read: average (e.g. geometric mean) where more than one data point, read-out: ERK5 IC50.

T1 sequence (Q13164 whole entry): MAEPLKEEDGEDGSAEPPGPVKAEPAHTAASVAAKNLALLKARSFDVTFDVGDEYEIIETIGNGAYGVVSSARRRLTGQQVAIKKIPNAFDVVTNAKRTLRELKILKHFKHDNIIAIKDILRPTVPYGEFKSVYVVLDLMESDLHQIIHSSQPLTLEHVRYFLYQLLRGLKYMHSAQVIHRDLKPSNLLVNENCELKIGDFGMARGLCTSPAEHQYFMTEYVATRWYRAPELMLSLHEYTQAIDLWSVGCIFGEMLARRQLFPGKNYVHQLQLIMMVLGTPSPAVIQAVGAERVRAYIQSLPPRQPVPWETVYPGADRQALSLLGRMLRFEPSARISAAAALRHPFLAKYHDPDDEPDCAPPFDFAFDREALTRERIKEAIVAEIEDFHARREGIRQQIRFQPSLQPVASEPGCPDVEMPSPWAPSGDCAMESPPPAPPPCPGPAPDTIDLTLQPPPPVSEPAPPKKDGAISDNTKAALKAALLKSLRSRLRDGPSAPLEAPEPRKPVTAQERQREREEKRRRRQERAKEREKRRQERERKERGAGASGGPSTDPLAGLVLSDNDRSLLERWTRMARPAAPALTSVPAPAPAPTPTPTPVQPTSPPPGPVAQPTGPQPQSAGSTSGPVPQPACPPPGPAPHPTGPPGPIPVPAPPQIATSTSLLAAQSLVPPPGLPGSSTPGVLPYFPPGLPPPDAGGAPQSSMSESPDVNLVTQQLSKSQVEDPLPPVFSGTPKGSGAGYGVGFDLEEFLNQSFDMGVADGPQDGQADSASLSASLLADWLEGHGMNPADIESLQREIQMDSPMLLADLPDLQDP

Consider `Cc1cccc(F)c1C(=O)c1c[nH]c(C(=O)NC2CCNCC2)c1` [Example 191, 4-(2-Fluoro-6-methylbenzoyl)-N-(piperidin-4-yl)-1H-pyrrole-2-carboxamide], for which the IC50 at ERK5 (setting [2]) turned out to be 1.4 µM; in assay [1], 19.5 µM. Regarding `O=C(Nc1cccnc1)c1cc(C(=O)c2c(F)cccc2F)c[nH]1` [Example 122, 4-(2,6-Difluorobenzoyl)-N-(pyridin-3-yl)-1H-pyrrole-2-carboxamide], the IC50 against ERK5 was found to be 1.12 µM; in assay [1] it was 26 µM. Take `O=C(NC1CCOCC1)c1cc(C(=O)c2c(F)cccc2F)c[nH]1` [Example 124, 4-(2,6-Difluorobenzoyl)-N-(tetrahydro-2H-pyran-4-yl)-1H-pyrrole-2-carboxamide]: the IC50 turned out to be 2.25 µM on ERK5 (setting [2]) and 23.3 µM in assay [1]. The like results for `O=C(NC1CCNCC1)c1cc(C(=O)c2c(F)cccc2Br)c[nH]1` [Example 197, 4-(2-Bromo-6-fluorobenzoyl)-N-(piperidin-4-yl)-1H-pyrrole-2-carboxamide] were, in that order, 0.386 µM and 22 µM.

For `O=C(Nc1cnn(C2CCNCC2)c1)c1cc(C(=O)c2c(F)cccc2Cl)c[nH]1` [Example 52, 4-(2-Chloro-6-fluorobenzoyl)-N-(1-(piperidin-4-yl)-1H-pyrazol-4-yl)-1H-pyrrole-2-carboxamide], the IC50 on ERK5 (setting [2]) was determined as 0.123 µM; in assay [1], 8.81 µM. For the compound `O=C(Nc1ccncc1)c1cc(C(=O)c2c(F)cccc2Cl)c[nH]1` [Example 187, 4-(2-Chloro-6-fluorobenzoyl)-N-(pyridin-4-yl)-1H-pyrrole-2-carboxamide], the IC50 on ERK5 came to 0.602 µM; in assay [1], 2.33 µM. For `CC(=O)N1CCC(NC(=O)c2cc(C(=O)c3c(Cl)ccc(Cl)c3F)c[nH]2)CC1` [Example 7, N-(1-Acetylpiperidin-4-yl)-4-(3,6-dichloro-2-fluorobenzoyl)-1H-pyrrole-2-carboxamide], the figures for the IC50 (on ERK5 (setting [2]); in assay [1]) were 0.0878 µM and 0.968 µM, respectively. The like results for `CN1CCC(NC(=O)c2cc(C(=O)c3c(F)cccc3Cl)c[nH]2)CC1` [Example 192, 4-(2-Chloro-6-fluorobenzoyl)-N-(1-methylpiperidin-4-yl)-1H-pyrrole-2-carboxamide] were, in that order, 0.199 µM and 3.01 µM. On the same counts, the results for `CC(C)(C)OC(=O)N1CCC(NC(=O)c2cc(C(=O)c3c(F)cccc3F)c[nH]2)CC1` [Example 123, tert-Butyl 4-(4-(2,6-difluorobenzoyl)-1H-pyrrole-2-carboxamido)piperidine-1-carboxylate] are 2.86 µM and 25 µM. Consider `CN1CCC(NC(=O)c2cc(C(=O)c3c(F)cccc3F)c[nH]2)CC1` [Example 129, 4-(2,6-Difluorobenzoyl)-N-(1-methylpiperidin-4-yl)-1H-pyrrole-2-carboxamide], for which the IC50 on ERK5 (setting [2]) is 1.13 µM; in assay [1], 6 µM. Consider `CN1CCN(c2ccc(NC(=O)c3cc(C(=O)c4c(F)cccc4Cl)c[nH]3)cn2)CC1` [Example 31, 4-(2-Chloro-6-fluorobenzoyl)-N-(6-(4-methylpiperazin-1-yl)pyridin-3-yl)-1H-pyrrole-2-carboxamide], for which the IC50 on ERK5 (setting [2]) was found to be 0.0915 µM; in assay [1] it was 1.18 µM. Turning to `O=C(Nc1ccncc1)c1cc(C(=O)c2c(F)cccc2Br)c[nH]1` [Example 189, 4-(2-Bromo-6-fluorobenzoyl)-N-(pyridin-4-yl)-1H-pyrrole-2-carboxamide], the IC50 against ERK5 was 0.676 µM; in assay [1], 4 µM. In the case of `O=C(Nc1cccnc1)c1cc(C(=O)c2c(F)cccc2C(F)(F)F)c[nH]1` [Example 184, 4-(2-Fluoro-6-(trifluoromethyl)benzoyl)-N-(pyridin-3-yl)-1H-pyrrole-2-carboxamide], the IC50 at ERK5 (setting [2]) came out at 5.68 µM; in assay [1], 10.3 µM. With `O=C(NC1CCNCC1)c1cc(C(=O)c2c(F)cccc2F)c[nH]1` [Example 126, 4-(2,6-Difluorobenzoyl)-N-(piperidin-4-yl)-1H-pyrrole-2-carboxamide], the IC50 at ERK5 (setting [2]) stood at 1.26 µM; in assay [1], 18.3 µM. The like results for `O=C(Nc1cccnc1)c1cc(C(=O)c2cc(F)ccc2F)c[nH]1` [Example 225, 4-(2,5-Difluorobenzoyl)-N-(pyridin-3-yl)-1H-pyrrole-2-carboxamide] were, in that order, 6.03 µM and 4.77 µM.

As for `O=C(NC1CCNCC1)c1cc(C(=O)c2c(F)cccc2C(F)(F)F)c[nH]1` [Example 161, 4-(2-Fluoro-6-(trifluoromethyl)benzoyl)-N-(piperidin-4-yl)-1H-pyrrole-2-carboxamide], the values for the IC50 (on ERK5 (setting [2]); in assay [1]) were 2.41 µM and 16.7 µM, respectively. The like results for `O=C(Nc1ccncc1)c1cc(C(=O)c2c(F)cccc2C(F)(F)F)c[nH]1` [Example 183, 4-(2-Fluoro-6-(trifluoromethyl)benzoyl)-N-(pyridin-4-yl)-1H-pyrrole-2-carboxamide] were, in that order, 1.88 µM and 7.67 µM. Take `O=C(NC1CCNCC1)c1cc(C(=O)c2c(Cl)ccc(Cl)c2F)c[nH]1` [Example 4, 4-(3,6-Dichloro-2-fluorobenzoyl)-N-(piperidin-4-yl)-1H-pyrrole-2-carboxamide]: the IC50 in assay [1] worked out at 2.34 µM. Consider `CS(=O)(=O)N1CCC(NC(=O)c2cc(C(=O)c3c(Cl)ccc(Cl)c3F)c[nH]2)CC1` [Example 9, 4-(3,6-Dichloro-2-fluorobenzoyl)-N-(1-(methylsulfonyl)piperidin-4-yl)-1H-pyrrole-2-carboxamide], for which the IC50 was determined as 0.144 µM at ERK5 (setting [2]) and 0.826 µM in assay [1]. The like results for `O=C(Nc1cccnc1)c1cc(C(=O)c2cccc(Cl)c2Cl)c[nH]1` [Example 159, 4-(2,3-Dichlorobenzoyl)-N-(pyridin-3-yl)-1H-pyrrole-2-carboxamide] were, in that order, 1.49 µM and 24 µM. The like results for `O=C(NC1CCNCC1)c1cc(C(=O)c2c(F)cccc2Cl)c[nH]1` [Example 3, 4-(2-Chloro-6-fluorobenzoyl)-N-(piperidin-4-yl)-1H-pyrrole-2-carboxamide] were, in that order, 0.487 µM and 3.5 µM. For the compound `O=C(Nc1ccc[n+]([O-])c1)c1cc(C(=O)c2c(F)cccc2F)c[nH]1` [Example 128, 3-(4-(2,6-Difluorobenzoyl)-1H-pyrrole-2-carboxamido)pyridine 1-oxide], the IC50 at ERK5 (setting [2]) was found to be 13.8 µM. Same read-out and setting: next, `O=C(Nc1cnn(Cc2cccnc2)c1)c1cc(C(=O)c2c(Cl)ccc(Cl)c2F)c[nH]1` [Example 49, 4-(3,6-Dichloro-2-fluorobenzoyl)-N-(1-(pyridin-3-ylmethyl)-1H-pyrazol-4-yl)-1H-pyrrole-2-carboxamide]: 0.0202 µM. Turning to `O=C(Nc1cncnc1)c1cc(C(=O)c2c(Cl)ccc(Cl)c2F)c[nH]1` [Example 173, 4-(3,6-Dichloro-2-fluorobenzoyl)-N-(pyrimidin-5-yl)-1H-pyrrole-2-carboxamide], the IC50 was 0.316 µM on ERK5 (setting [2]) and 0.508 µM in assay [1]. For the compound `CCOc1ccc(Cl)c(C(=O)c2c[nH]c(C(=O)Nc3cccnc3)c2)c1F` [Example 256, 4-(6-Chloro-3-ethoxy-2-fluorobenzoyl)-N-(pyridin-3-yl)-1H-pyrrole-2-carboxamide], the IC50 at ERK5 (setting [2]) was determined as 0.116 µM.

For `O=C(Nc1cnc(N2CCC(O)CC2)nc1)c1cc(C(=O)c2c(Cl)ccc(Cl)c2F)c[nH]1` [Example 29, 4-(3,6-Dichloro-2-fluorobenzoyl)-N-(2-(4-hydroxypiperidin-1-yl)pyrimidin-5-yl)-1H-pyrrole-2-carboxamide], at ERK5 (setting [2]), the IC50 was determined as 0.537 µM. Consider `COCCN(CCOC)Cc1ccc(NC(=O)c2cc(C(=O)c3c(Cl)ccc(Cl)c3F)c[nH]2)cn1` [Example 283, N-(6-((bis(2-methoxyethyl)amino)methyl)pyridin-3-yl)-4-(3,6-dichloro-2-fluorobenzoyl)-1H-pyrrole-2-carboxamide], for which the IC50 at ERK5 (setting [2]) turned out to be 0.117 µM. Turning to `O=C(Nc1cccnc1)c1cc(C(=O)c2c(F)ccc(F)c2Cl)c[nH]1` [Example 214, 4-(2-Chloro-3,6-difluorobenzoyl)-N-(pyridin-3-yl)-1H-pyrrole-2-carboxamide], on ERK5 (setting [2]), the IC50 came out at 1.01 µM. On to `O=C(Nc1ccnc(Cl)n1)c1cc(C(=O)c2c(F)cccc2Br)c[nH]1` [Example 141, 4-(2-Bromo-6-fluorobenzoyl)-N-(2-chloropyrimidin-4-yl)-1H-pyrrole-2-carboxamide], for which, at ERK5 (setting [2]), the IC50 is 7.76 µM. Still for that read-out and setting: with `CC(=O)OC1CCN(c2ncc(NC(=O)c3cc(C(=O)c4c(F)cccc4Cl)c[nH]3)cn2)CC1` [Example 21, 1-(5-(4-(2-Chloro-6-fluorobenzoyl)-1H-pyrrole-2-carboxamido)pyrimidin-2-yl)piperidin-4-yl acetate] the figure was 5.38 µM; with `COc1ccc(Cl)c(C(=O)c2c[nH]c(C(=O)Nc3cnn(CC4CCN(C)CC4)c3)c2)c1F` [Example 68, 4-(6-Chloro-2-fluoro-3-methoxybenzoyl)-N-(1-((1-methylpiperidin-4-yl)methyl)-1H-pyrazol-4-yl)-1H-pyrrole-2-carboxamide], 0.0199 µM; with `O=C(Nc1ccc(OCCO)nc1)c1cc(C(=O)c2c(Cl)ccc(Cl)c2F)c[nH]1` [Example 281, 4-(3,6-Dichloro-2-fluorobenzoyl)-N-(6-(2-hydroxyethoxy)pyridin-3-yl)-1H-pyrrole-2-carboxamide], 0.391 µM. Same read-out and setting: next, `Cc1ccncc1NC(=O)c1cc(C(=O)c2c(Cl)ccc(Cl)c2F)c[nH]1` [Example 93, 4-(3,6-Dichloro-2-fluorobenzoyl)-N-(4-methylpyridin-3-yl)-1H-pyrrole-2-carboxamide]: 0.483 µM; `O=C(Nc1cncnc1)c1cc(C(=O)c2c(F)ccc(Cl)c2Cl)c[nH]1` [Example 170, 4-(2,3-Dichloro-6-fluorobenzoyl)-N-(pyrimidin-5-yl)-1H-pyrrole-2-carboxamide]: 0.346 µM. Take `Cc1ccc(F)c(C(=O)c2c[nH]c(C(=O)Nc3cncnc3)c2)c1` [Example 233, 4-(2-Fluoro-5-methylbenzoyl)-N-(pyrimidin-5-yl)-1H-pyrrole-2-carboxamide]: the IC50 on ERK5 (setting [2]) amounted to 5.21 µM.
